Experimental findings from a melting point compilation (Tetko et al.; mined from patent text by program, amines drawn as free bases though some values may be those of a salt) are described below.

A word on the melting point: it is the temperature, or range, at which the solid turns liquid.

Consider `O=C(O)COc1ccc(SCc2ccc(-c3ccc(C(F)(F)F)cc3)cc2)c2c1CCC2`, for which the melting point lay within 158 to 159 °C.
The molecule `CC(C)(C)CC(C)(C)c1ccc(Oc2cc(N)c(O)cc2[N+](=O)[O-])cc1` came in with a melting point of 187 to 189 °C.
The molecule `COC(=O)c1ccc2c(Br)n[nH]c2c1` returned a melting point of 186 to 189 °C.
`CCCCc1ccc(C(=O)CCCn2ccnc2)cc1` displayed a melting point of 125 to 128 °C.
For the molecule `COc1ccc(C(=O)c2ccccc2NC(=O)CNC(=O)OCc2ccccc2)cc1`, the melting point was 97 to 98 °C.
To `CC(C)CC1(CC(=O)NO)CCN(Cc2ccccc2)C1=O` (centres undefined) belongs 119 to 120 °C; to `Cc1cccc(C(=NO)c2ccc(Cl)cc2)c1O`, 178 °C; to `CC(=O)c1cc(C=O)c2occc2c1`, 91 to 93 °C.
To `CNC(=O)CCCCCCCCn1ccnc1` belongs 64 to 66 °C; to `C#Cc1cc(Nc2ncnc3cnc(F)cc23)ccc1F`, 223 to 226 °C; to `CC1(CN2CCC(n3c(=O)[nH]c4ccccc43)CC2)OCc2ccccc2-n2cccc21` (centres undefined), 199 to 201 °C.
To `OC(CCc1cccnc1)COc1ccc(-c2ccccc2)cc1` (centres undefined) belongs 83 to 86 °C; to `N#Cc1ccnc(CO)c1`, 92 to 94 °C; to `CC(=O)On1cnc2c(Br)csc2c1=O`, 159 to 162 °C.
Consider `COCCn1c(C)c(C(=O)c2c(Cl)c(Cl)c(Cl)c(Cl)c2C(=O)O)c2ccccc21`, for which the melting point lay in the range of 182 to 184 °C.
To `CN(CCCS(=O)CCCC(F)(F)C(F)(F)F)CCOc1ccc(C2=C(c3ccccc3)CCCc3cc(O)ccc32)cc1` (centres undefined) belongs 63 to 65 °C; to `O=C(O)c1ccccc1-n1nc(-c2ccccc2O)nc1-c1ccccc1O`, 132 to 138 °C; to `Cc1ccc(-c2nc3ccc(CN4CCN(C)CC4)cc3[nH]2)cc1C#Cc1ccc(NC(C)C)nn1`, 129 to 130 °C.
To `CC(C)(C)C(=O)c1cn(COCC[Si](C)(C)C)c2ncc(-c3ccc4c(ccn4Cc4ccccn4)c3)nc12` belongs 194 to 196 °C; to `CC(C)CN1C(=O)CCC(c2ccccc2Cl)c2ccccc21` (centres undefined), 139 to 140 °C.
Take `C=CCNC(=O)C=c1sc2n(c1=O)Cc1ccccc1N=2`: the melting point was in the range of 275 to 276 °C.
To `COc1ccc(-n2c(CC(=O)O)c(C(=O)O)c3cc(Oc4cccc(C(F)(F)F)c4)ccc32)cc1` belongs 210 °C.
As for `CNS(=O)(=O)c1cc2c(c(C(=O)O)c1)OCCO2`, the melting point lay within 208 to 209 °C.
To `CCOC(=O)c1ccc(CCN2CCN(C(=O)Cc3ccc(Cl)cc3)CC2)cc1` belongs 88 to 89 °C; to `COc1cc(OC)cc(-c2ncn(C)c2-c2ccc3c(c2)NCCO3)c1`, 175 to 178 °C; to `O=C1NCCN1S(=O)(=O)N1CCCCC1`, 201 °C.
In turn, `O=C(O)c1cc(Cl)nn1-c1ncccc1Cl` displayed a melting point of 198 to 199 °C.
The molecule `O=CCC(F)(F)CN1C(=O)c2ccccc2C1=O` came in with a melting point of 76 to 78 °C.
As for `Cc1ccccc1N1CNC(=O)C12CCN(C(=O)c1cc(C(F)(F)F)cc(C(F)(F)F)c1)CC2`, the melting point was in the range of 164 to 168 °C.
To `Cn1c(COc2ccc(CC3SC(=O)NC3=O)cc2)nc2ccc(Oc3cccc(NC(=O)Nc4cccc(C#N)c4)c3)cc21` (centres undefined) belongs 148 to 154 °C; to `CN(c1cccc2cc(-c3ncc(CCC(=O)NN)s3)[nH]c12)S(=O)(=O)c1cccs1`, 224 to 226 °C; to `CC(C)C(=O)N1CCC(C2(c3cccc(-c4ccccc4)c3)N=C(N)N(C)C2=O)CC1` (centres undefined), 131 to 134 °C.
For the molecule `COc1cc(CC(=O)NCCCOc2ccc(C)c(C)c2)ccc1OCCN`, the melting point was 103 to 106 °C.
`O=C1c2ccccc2-c2c1c1ccccc1c(=O)n2CCCNS(=O)(=O)c1ccc(Br)cc1` came in with a melting point of 241 to 243 °C.
To `O=C(Nc1ccc(F)cc1)NC1CCN(S(=O)(=O)c2ccc(Cl)cc2)CC1` belongs 160 to 162 °C; to `Nc1nc(OCCC2CCCCC2)nc2c1ncn2C1OC(CO)C(O)C1O` (centres undefined), 105 to 112 °C.
To `COc1ccc(C(=O)c2cccc(OCc3nc(-c4ccccc4)oc3C)c2)c(O)c1` belongs 117 to 118 °C; to `CS(=O)(=O)Oc1ccc2c(=O)c(C(=O)O)cn3c2c1CCC3`, 270 to 275 °C.
Regarding `COc1cc(N)c2c(c1)C(=O)CCN2`, the melting point was 107 to 110 °C.
For `O=S1(=O)NCC2(OCCO2)c2ccc3ccccc3c21`, the melting point was 202 to 204 °C.
To `COc1ccc2ccn3c(C(F)(F)F)nnc3c2c1` belongs 152 to 154 °C.
Regarding `O=[N+]([O-])C(c1ccccc1)(c1ccccc1)[N+](=O)[O-]`, the melting point turned out to be 158 °C.
To `O=S(=O)(CC1CCCC1)c1nc[nH]n1` belongs 150 to 155 °C; to `CC(C)CCCC(C)C1CC(O)C2=C3C(O)CC4CC(OC(=O)c5ccccc5)CCC4(C)C3CCC21C` (centres undefined), 178 to 179 °C.
In the case of `CC1Cc2cc(S(=O)(=O)N3CCN(c4cccc(Cl)c4)CC3)ccc2N1C(=O)CCC(=O)O` (centres undefined), the melting point was 210 °C.
Regarding `CN1C(=O)CCn2nc(-c3ccc(F)cc3)c(-c3ccncc3)c21`, the melting point is 185 to 186 °C.
Molecule `CC1=CC(=O)C=C2CC(C)C3C4CCC(=O)C4(C)CCC3C12C` (centres undefined) came in with a melting point of 148 to 151 °C.
To `OCC(CO)OCc1ccccc1` belongs 38 to 39 °C; to `Clc1ccc2oc(-c3ccc(N4CCCCC4)cc3)nc2c1`, 162 to 164 °C; to `COc1ccc2oc(-c3csc(C)n3)cc2c1`, 136 to 137 °C.
To `Cc1c(F)cc2c(=O)c(C(=O)O)cn(C3CC3)c2c1F` belongs 208 to 210 °C; to `CC(C)CC1CCN(CCc2ccccc2)C1=O` (centres undefined), 69 to 71 °C; to `CCCCN1CCN(CCNC(=O)c2nn(C(C)C)c3ccccc23)CC1`, 82 to 84 °C.
To `CCn1ncc2c(NCc3ccc(OCCN4CCOCC4)cc3)c3ccccc3nc21` belongs 170 to 172 °C.
For `COc1ccc2c(c1C=O)OCO2`, the melting point was found to be 124 °C.
To `COc1cccc2c1CCC1CCC(=O)N(C)CC21` (centres undefined) belongs 123 to 124 °C; to `Cc1nc(NC(=O)c2cnn3c(C(F)(F)F)cc(-c4ccc(Cl)c(Cl)c4)nc23)sc1S(N)(=O)=O`, 307 °C.
Molecule `Ic1ccc(-c2cccnc2)cc1` had a melting point of 112 to 115 °C.
As for `O=c1n(CCCCN2CCN(c3ccccc3)CC2)nc2n1-c1ccccc1OC2`, the melting point was 85 to 87 °C.
To `Cc1cc(=O)n(CCCN2CCC(c3c[nH]c4ccccc34)CC2)c2ccccc12` belongs 74 to 77 °C; to `NCCN1CCC(Nc2nc3cncnc3n2Cc2ccc(F)cc2)CC1`, 146 °C; to `CCCCCN1C(=O)C2(COc3cc4c(cc32)OCO4)c2ccccc21` (centres undefined), 85 to 87 °C.
Regarding `O=C(O)C1=Cc2cc(Cl)c(Oc3ccccc3)cc2OC1C(F)(F)F` (centres undefined), the melting point lay within 220 to 222 °C.
To `CN(CC(=O)O)S(=O)(=O)c1ccc(Cl)cc1` belongs 180 to 182 °C; to `O=C(O)c1ccc(F)c(F)c1Nc1ccc(I)cc1Cl`, 226 to 227 °C; to `Nc1ccc(Nc2cc3c(cc2Nc2ccc(N)cc2)C(=O)NC3=O)cc1`, 154 to 157 °C.
To `CCOC(=O)C1=C(C)NC(C)=C(C(=O)OCC(F)(F)F)C1c1cccc([N+](=O)[O-])c1` (centres undefined) belongs 192 °C.
To `O=C1c2ccc(Nc3ccccc3)nc2CC2CCCCC12` (centres undefined) belongs 214 to 216 °C.
As to `Cn1cc(S(C)=O)c(=O)c2ccsc21` (centres undefined), the melting point is 150 to 152 °C.
To `O=C1NCCN1c1ccc(F)cc1N1CCN(C/C=C/c2ccc(Cl)cc2)CC1` belongs 170 to 172 °C.
To `CCOC(=O)c1ncc2[nH]c3ccc(Oc4ncccn4)cc3c2c1COC` belongs 128 to 129 °C; to `N#Cc1ccc(C(=O)N[C@@H](Cc2c[nH]c3ccccc23)C(=O)O)cc1`, 125 to 127 °C.
The molecule `Cc1cc(C)c(Nc2nc(C)ncc2S(=O)(=O)c2cccc(OCc3ccccc3)c2)c(C)c1` gave a melting point of 112 to 115 °C.
In the case of `CC1C(=O)NC(=O)NC1=O`, the melting point was in the range of 200 to 215 °C.
`Cc1nc(OCCCc2cc(OC(C)C)nn2Cc2ccc(Cl)cc2Cl)c(CC#N)s1` showed a melting point of 92 to 93 °C.
To `COc1cccc(-c2ccc3c(c2)C(=O)N(Cc2cccnc2)C3=O)c1` belongs 115 to 117 °C.
To `COc1ccc2c(c1)C(c1ccc(OCCN(C(C)C)C(C)C)cc1)c1c-2ccc2ccccc12` (centres undefined) belongs 106 to 115 °C; to `NS(=O)(=O)c1ccc(CC(=O)C=CC(=O)O)cc1`, 180 to 181 °C.
`CC(C)N(c1ccc(C(=O)Oc2ccccc2)c(Cl)c1)S(=O)(=O)c1ccccc1` came in with a melting point of 120 °C.
To `CN(C)[C@H]1CCN(C(=O)c2ccc(Cc3cn(C)c4ccccc34)cc2)C1` belongs 101 to 105 °C; to `CCCc1nn(C)c(C(N)=O)c1NC(=O)c1ccccc1OCC`, 153 to 154 °C; to `CNC(=O)[C@H](Cc1ccccc1)NC(=O)[C@H](CC(C)C)N[C@H](CCN(C(=O)OCc1ccccc1)C(=O)OCc1ccccc1)C(=O)OC(C)(C)C`, 95 to 99 °C.
Consider `CCCC(C=NNC(C)=O)c1ccc(Cl)cc1Cl` (centres undefined), for which the melting point lay in the range of 145 to 147 °C.
To `Oc1cnc2cc(C(F)(F)F)ccc2n1` belongs 260 °C.
To `O=C(O)c1cc(-c2ccc3c(c2)CCO3)nn(CCCc2ccccc2Cl)c1=O` belongs 137 to 140 °C; to `S=C=Nc1ccc(-c2nc(-c3cccs3)no2)cc1`, 161 to 162 °C; to `CC(C)c1ccc(S(=O)(=O)Nc2nc(-c3cccc([N+](=O)[O-])c3)cs2)nc1`, 208 to 210 °C.
Consider `CN(C)c1ccc(N=Nc2ccccc2C(=O)NCCNC(=O)CI)cc1`, for which the melting point is 140 to 142 °C.
To `COc1ccc(C(=O)O[Si](C)(C)C)cc1` belongs 60 to 61 °C.
